In patent US11554116B2, “Agent for preventing and/or treating alzheimer's disease” (KYOTO UNIVERSITY, priority 2017, dated 2023):
Counter-ions that a name gives are not always drawn. Like-named read-outs stand apart in the source and are kept apart here.

Test system: Aβ production (Aβ1-40, 1-42 in culture supernatant)
Experiment: Aβ assay in cerebral cortex nerve cells induced from familial AD patient iPS cells (PSEN1 G384A)
Format: cell-based, human
[1] = added at 0.0016, 0.008, 0.04, 0.2, 1, 5, 25 μM to cerebral cortex nerve cells, 48 hr

| SMILES | Aβ production-lowering action | change of Aβ production [1] | further results |
| --- | --- | --- | --- |
| CC(C)C[C@H]1C(=O)N2CCC[C@H]2[C@]2(O)O[C@](NC(=O)[C@@H]3C=C4c5cccc6[nH]cc(c56)C[C@H]4N(C)C3)(C(C)C)C(=O)N12 [Alpha-Ergocryptine, α-ergocryptine] | showed an Aβ production-lowering action similar to that of bromocriptine | – | Aβ42/40 ratio: did not change; lowering of Aβ42 subtype compared with Aβ40: lowered Aβ40 and 42 to the same degree |
| C=CCN1C[C@H](C(=O)N(CCCN(C)C)C(=O)NCC)C[C@@H]2c3cccc4[nH]cc(c34)C[C@H]21 [Cabergoline] | – | – | Aβ production-lowering action (at 25 μM, cerebral cortex nerve cells, 48 hr): showed an Aβ production-lowering action |
| CC(C)[C@@]1(NC(=O)[C@@H]2C[C@@H]3c4cccc5[nH]cc(c45)C[C@H]3N(C)C2)O[C@@]2(O)[C@@H]3CCCN3C(=O)[C@H](Cc3ccccc3)N2C1=O [Dihydroergocristine mesylate, dihydroergocristine] | showed a similar Aβ production-lowering action | – | – |
| CN1C[C@H](C(=O)N[C@]2(C)O[C@@]3(O)[C@@H]4CCCN4C(=O)[C@H](Cc4ccccc4)N3C2=O)C[C@@H]2c3cccc4[nH]cc(c34)C[C@H]21.CS(=O)(=O)O [Dihydroergotamine Mesylate, dihydroergotamine] | showed a similar Aβ production-lowering action | – | – |
| CC(C)[C@@]1(NC(=O)[C@@H]2C=C3c4cccc5[nH]cc(c45)C[C@H]3N(C)C2)O[C@@]2(O)[C@@H]3CCCN3C(=O)[C@H](Cc3ccccc3)N2C1=O [Ergocristine, ergocristine] | showed a similar Aβ production-lowering action | – | – |
| CN1C[C@H](C(=O)N[C@]2(C)O[C@@]3(O)[C@@H]4CCCN4C(=O)[C@H](Cc4ccccc4)N3C2=O)C=C2c3cccc4[nH]cc(c34)C[C@H]21.CN1C[C@H](C(=O)N[C@]2(C)O[C@@]3(O)[C@@H]4CCCN4C(=O)[C@H](Cc4ccccc4)N3C2=O)C=C2c3cccc4[nH]cc(c34)C[C@H]21.O=C(O)C(O)C(O)C(=O)O [Ergotamine Tartrate, ergotamine] | showed a similar Aβ production-lowering action | – | – |
| Cc1cccc(C(=O)NCN2CCN(c3ccccc3C#N)CC2)c1 [PD168077] | – | none of the compounds changed Aβ production | – |
| CCCN1C[C@H](CSC)C[C@@H]2c3cccc4[nH]cc(c34)C[C@H]21 [Pergolide mesylate] | – | – | Aβ production-lowering action (at 5, 25 μM, cerebral cortex nerve cells, 48 hr): showed an Aβ production-lowering action |
| CCCN[C@H]1CCc2nc(N)sc2C1 [Pramipexole dihydrochloride] | – | none of the compounds changed Aβ production | – |
| CCCN(CCC)CCc1cccc2c1CC(=O)N2 [Ropinirole hydrochloride] | – | none of the compounds changed Aβ production | – |
| Oc1cc2c(cc1O)C(c1ccccc1)CNCC2 (stereo not drawn) [SKF38393] | – | none of the compounds changed Aβ production | – |
| C=CCN1CCc2nc(N)sc2CC1 [Talipexole] | – | none of the compounds changed Aβ production | – |
| CC(C)C[C@H]1C(=O)N2CCC[C@H]2[C@]2(O)O[C@](NC(=O)[C@@H]3C=C4c5cccc6[nH]c(Br)c(c56)C[C@H]4N(C)C3)(C(C)C)C(=O)N12 [bromocriptine] | decreases the production of Aβ | – | Aβ42/40 ratio: lower Aβ42/40 ratio; lowering of Aβ42 subtype compared with Aβ40: more efficiently reduced the production of Aβ42 subtype than Aβ40 |
| Cl.NCCc1ccc(O)c(O)c1 [dopamine hydrochloride] | – | – | change of Aβ production: none of the compounds changed Aβ production |
